{
  "source": "patent US20140294856A1",
  "about": "“COMBINATION TREATMENT COMPRISING A HDAC6 INHIBITOR AND AN AKT INHIBITOR” (priority 2011, published 2014)",
  "key": {"[1]": {"test": "Pharmacokinetics following a single injection", "type": "in vivo", "protocol": "FIG. 4. Pharmacokinetic profile of HDAC-C1A following a single injection at 20 mg/kg.\nFIG. 22 (Table 3): Pharmacokinetic data of HDAC-C1A following a single injection.\nThe drug was stable after oral, parenteral and intravenous administration for 24 h (last time point examined). […] The Cma and AUC0-24h following i.p. injection (20 mg/kg) were 3.2 μg/mL and 11.2 μg/mL*h, respectively. […] The acid instability of HDAC-C1A could therefore be improved by enteric coating as a means to avoid breakdown in the stomach. […] HDAC-C1A was also tested in HCT116 human colon cancer xenograft model using a refined dose and scheduling. […] This dose was non-toxic (no reduction in body weight) (FIG. 5.D). The acetylated form of α-tubulin (biomarker of response to HDAC6 inhibition) could be observed after 14 days of treatment and could be detected as early as 6 hours after the 1st injection (FIG. 5.E.). The acetylated form of Histone 3 (biomarker of response of class I histones) could be observed as early as 2 hours after the 1st injection and remain after 14 days of treatment (FIG. 5.E)."}, "[2]": {"test_system": "HCT116 cells", "test": "Phospho-AKT levels by western blotting", "type": "cell-based, human", "settings": "10 μM"}, "[3]": {"test_system": "HCT116 cells", "test": "Acetylation biomarkers by western blotting (with washout)", "type": "cell-based, human", "protocol": "FIG. 1. HDAC-C1A irreversible activity. A. […] inhibitory activity of HDAC-C1A was tested using HeLa nuclear extracts and compared to the negative (reversible) control HDAC-C1B. B Growth inhibitory effect of the different compounds in HCT-116 cells at indicated time and compared to growth inhibitory after 72 hours of incubation.\nHSP90 protein expression was not altered (FIG. 2)."}},
  "data": [
    {"compound": "CC(/C=C/C(=O)NO)=C\\c1ccc(NS(=O)(=O)c2ccc(N(CCCl)CCCl)cc2)cc1", "note": "[HDAC-C1A]", "values": [
      {"measurement": "AUC0-24h", "setting": "[1]; given orally", "result": 94000, "unit": "ng·h/mL"},
      {"measurement": "Cmax", "setting": "[1]; given orally", "result": 700, "unit": "ng/mL"},
      {"measurement": "AUC0-24h", "setting": "[1]; i.p. injection 20 mg/kg", "result": 11200, "unit": "ng·h/mL"},
      {"measurement": "Cmax", "setting": "[1]; i.p. injection 20 mg/kg", "result": 3200, "unit": "ng/mL"},
      {"measurement": "dose proportionality of pharmacokinetics", "setting": "[1]; i.p. injection, up to 160 mg/kg", "result": "dose proportionate"},
      {"measurement": "oral bioavailability", "setting": "[1]; in vivo, po", "result": 16, "unit": "%"},
      {"measurement": "stability after administration", "setting": "[1]; oral, parenteral and intravenous, 24 h last time point", "result": "stable"},
      {"measurement": "fold increase of P-AKT", "setting": "[2]; 4 h", "result": 1.5, "unit": "fold"},
      {"measurement": "fold increase of P-AKT", "setting": "[2]; 24 h", "result": 2, "unit": "fold"},
      {"measurement": "HSP90 protein expression", "setting": "[3]", "result": "not altered"},
      {"measurement": "acetylation markers at low concentration and early time point", "setting": "[3]; 1 μM and 4 hours", "result": "increase of acetyl-tubulin and other markers of HDAC6 inhibition"},
      {"measurement": "acetyl form of HSP90", "setting": "[3]; 4 h and 24 h, 1 μM and 10 μM", "result": "dose and time dependent increase"},
      {"measurement": "acetylation of histone H3, H4 and α-tubulin after washout", "setting": "[3]; treatment 4 hours, then washout", "result": "maintained at 4 hours after washout"}
    ]}
  ]
}
